# Test results: patent US9150632B2 (Indiana University Research and Technology Corporation, priority 2009, dated 2015)
# Non-standard residues stand in square brackets, D forms with d. Residues, ends and D or L forms follow the SMILES beside them. Dab = NCC[C@H](N)C(=O)O; Aib = CC(C)(N)C(=O)O
# Assays:
# glucagon receptor = target: T1, glucagon receptor (Homo sapiens, UniProt P47871); assay: Functional assay-cAMP synthesis, luciferase reporter in HEK293 cells, glucagon receptor; type: cell-based; parameters: % activity: concentration or dose not given beside the values; conditions: for % Activity of Glucagon: Table 21, relative to the native peptide
# T1 construct: expressed in transfected cells; host or cells: HEK293
# GLP-1 receptor = GLP-1 receptor (Homo sapiens, UniProt P43220); conditions: for % Activity of GLP-1: Table 21, relative to the native peptide; for GLP-1 Receptor Relative Potency: Table 11
# Chain of GLP-1 receptor (P43220 24-463, species assumed): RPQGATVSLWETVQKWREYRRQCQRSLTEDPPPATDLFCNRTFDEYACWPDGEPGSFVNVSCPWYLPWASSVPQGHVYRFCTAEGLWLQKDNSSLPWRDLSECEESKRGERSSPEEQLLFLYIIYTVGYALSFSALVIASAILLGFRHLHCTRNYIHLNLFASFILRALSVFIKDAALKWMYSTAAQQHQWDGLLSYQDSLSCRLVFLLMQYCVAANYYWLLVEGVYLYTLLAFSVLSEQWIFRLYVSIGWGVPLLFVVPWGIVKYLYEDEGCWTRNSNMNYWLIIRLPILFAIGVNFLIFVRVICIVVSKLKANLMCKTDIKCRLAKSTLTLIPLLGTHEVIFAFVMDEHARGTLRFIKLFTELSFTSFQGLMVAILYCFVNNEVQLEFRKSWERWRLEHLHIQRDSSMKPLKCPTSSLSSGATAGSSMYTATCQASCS
# Experimental: Peptide absorbance readings were obtained from UV Absorbance measurements at 280 nm on a Genesys 6 Spectrophotometer (Thermo Electron Corporation). Beer's Law was used to calculate solution concentrations based on the number of tryptophan and tyrosine residues in each analog. At the end of the incubation, 100 μL LucLite luminescence substrate reagent was added to each well, the plate sealed and shaken, and placed into a Wallac Trilux luminescence counter for cAMP detection.
# HEK293 cells were co-transfected with the GcgR or GLP-1R cDNAs and a luciferase reporter gene-linked to a cAMP response element (CRE). […] The plate was incubated for 10 min in the dark and light output was quantified on a MicroBeta1450 liquid scintillation counter (Perkin-Elmer, Wellesley, Mass.).
# T1 sequence (P47871 26-477): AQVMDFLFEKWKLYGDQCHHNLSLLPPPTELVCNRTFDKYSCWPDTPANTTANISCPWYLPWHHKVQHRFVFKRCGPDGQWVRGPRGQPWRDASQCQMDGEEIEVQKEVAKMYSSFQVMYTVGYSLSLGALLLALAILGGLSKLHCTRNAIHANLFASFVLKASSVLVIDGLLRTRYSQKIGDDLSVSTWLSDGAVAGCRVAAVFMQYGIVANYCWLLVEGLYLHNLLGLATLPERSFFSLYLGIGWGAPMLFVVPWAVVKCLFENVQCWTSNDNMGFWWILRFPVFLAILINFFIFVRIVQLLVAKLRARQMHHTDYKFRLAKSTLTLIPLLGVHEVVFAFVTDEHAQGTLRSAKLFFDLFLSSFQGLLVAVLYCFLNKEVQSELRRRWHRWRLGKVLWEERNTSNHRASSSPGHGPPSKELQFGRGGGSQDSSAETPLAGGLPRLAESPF
SMILES,% Activity of Glucagon (glucagon receptor) [%],% Activity of GLP-1 (GLP-1 receptor) [%],GLP-1 Receptor Relative Potency (GLP-1 receptor) [%],other results
"CCCCCCCCCCCCCC(=O)NCCCC[C@H](NC(=O)[C@H](CC(=O)O)NC(=O)[C@H](CO)NC(=O)[C@@H](NC(=O)[C@H](Cc1ccccc1)NC(=O)[C@@H](NC(=O)CNC(=O)[C@H](CCC(N)=O)NC(=O)[C@@H](CO)NC(=O)[C@@H](N)Cc1c[nH]cn1)[C@@H](C)O)[C@@H](C)O)C(=O)N[C@@H](CO)C(=O)N[C@@H](CCCCN)C(=O)N[C@@H](Cc1ccc(O)cc1)C(=O)N[C@@H](CC(C)C)C(=O)N[C@@H](CC(=O)O)C(=O)N[C@@H](CCC(=O)O)C(=O)N[C@@H](CCCNC(=N)N)C(=O)N[C@@H](CCCNC(=N)N)C(=O)N[C@@H](C)C(=O)N[C@@H](CCCCN)C(=O)N[C@@H](CC(=O)O)C(=O)N[C@@H](Cc1ccccc1)C(=O)N[C@H](C(=O)N[C@@H](CCC(N)=O)C(=O)N[C@@H](Cc1c[nH]c2ccccc12)C(=O)N[C@@H](CC(C)C)C(=O)N[C@@H](CCSC)C(=O)N[C@@H](CC(N)=O)C(=O)N[C@H](C(N)=O)[C@@H](C)O)C(C)C [dS2, E16/K20, K10(C14) Gluc Amide, HXQGTFTSDKSKYLDERRAKDFVQWLMNT-amide]",21.9,6.3,,
"CCCCCCCCCCCCCCCC(=O)NCCCC[C@H](NC(=O)[C@H](CC(=O)O)NC(=O)[C@H](CO)NC(=O)[C@@H](NC(=O)[C@H](Cc1ccccc1)NC(=O)[C@@H](NC(=O)CNC(=O)[C@H](CCC(N)=O)NC(=O)[C@@H](CO)NC(=O)[C@@H](N)Cc1c[nH]cn1)[C@@H](C)O)[C@@H](C)O)C(=O)N[C@@H](CO)C(=O)N[C@@H](CCCCN)C(=O)N[C@@H](Cc1ccc(O)cc1)C(=O)N[C@@H](CC(C)C)C(=O)N[C@@H](CC(=O)O)C(=O)N[C@@H](CCC(=O)O)C(=O)N[C@@H](CCCNC(=N)N)C(=O)N[C@@H](CCCNC(=N)N)C(=O)N[C@@H](C)C(=O)N[C@@H](CCCCN)C(=O)N[C@@H](CC(=O)O)C(=O)N[C@@H](Cc1ccccc1)C(=O)N[C@H](C(=O)N[C@@H](CCC(N)=O)C(=O)N[C@@H](Cc1c[nH]c2ccccc12)C(=O)N[C@@H](CC(C)C)C(=O)N[C@@H](CCSC)C(=O)N[C@@H](CC(N)=O)C(=O)N[C@H](C(N)=O)[C@@H](C)O)C(C)C [dS2, E16/K20, K10(C16) Gluc Amide, HXQGTFTSDKSKYLDERRAKDFVQWLMNT-amide]",44.7,19.5,,
"CCCCCCCCCCCCCCCC(=O)NCCCC[C@H](NC(=O)[C@H](CC(=O)O)NC(=O)[C@H](CO)NC(=O)[C@@H](NC(=O)[C@H](Cc1ccccc1)NC(=O)[C@@H](NC(=O)CNC(=O)[C@H](CCC(N)=O)NC(=O)C(C)(C)NC(=O)[C@@H](N)Cc1c[nH]cn1)[C@@H](C)O)[C@@H](C)O)C(=O)N[C@@H](CO)C(=O)N[C@@H](CCCCN)C(=O)N[C@@H](Cc1ccc(O)cc1)C(=O)N[C@@H](CC(C)C)C(=O)N[C@@H](CC(=O)O)C(=O)NC(C)(C)C(=O)N[C@@H](CCCNC(=N)N)C(=O)N[C@@H](CCCNC(=N)N)C(=O)N[C@@H](C)C(=O)N[C@@H](CCC(N)=O)C(=O)N[C@@H](CC(=O)O)C(=O)N[C@@H](Cc1ccccc1)C(=O)N[C@H](C(=O)N[C@@H](CCC(N)=O)C(=O)N[C@@H](Cc1c[nH]c2ccccc12)C(=O)N[C@@H](CC(C)C)C(=O)N[C@@H](CCSC)C(=O)N[C@@H](CC(N)=O)C(=O)N[C@H](C(N)=O)[C@@H](C)O)C(C)C [AIB2, AIB16, K10(C16) Gluc Amide]",170,72.3,,
CSCC[C@H](NC(=O)[C@H](CC(C)C)NC(=O)[C@H](Cc1c[nH]c2ccccc12)NC(=O)[C@H](CCC(N)=O)NC(=O)[C@@H](NC(=O)[C@H](Cc1ccccc1)NC(=O)[C@H](CC(=O)O)NC(=O)[C@H](CCC(N)=O)NC(=O)[C@H](C)NC(=O)[C@H](CCCNC(=N)N)NC(=O)[C@H](CCCNC(=N)N)NC(=O)[C@H](CO)NC(=O)[C@H](CC(=O)O)NC(=O)[C@H](CC(C)C)NC(=O)[C@H](Cc1ccc(O)cc1)NC(=O)[C@H](CCCCN)NC(=O)[C@H](CO)NC(=O)[C@H](Cc1ccc(O)cc1)NC(=O)[C@H](CC(=O)O)NC(=O)[C@H](CO)NC(=O)[C@@H](NC(=O)[C@H](Cc1ccccc1)NC(=O)[C@@H](NC(=O)CNC(=O)[C@H](CCC(N)=O)NC(=O)[C@H](CO)NC(=O)[C@@H](N)Cc1c[nH]cn1)[C@@H](C)O)[C@@H](C)O)C(C)C)C(=O)N[C@@H](CC(N)=O)C(=O)NCC(=O)NCC(=O)N1CCC[C@H]1C(=O)N[C@@H](CO)C(=O)N[C@@H](CO)C(=O)NCC(=O)N[C@@H](C)C(=O)N1CCC[C@H]1C(=O)N1CCC[C@H]1C(=O)N1CCC[C@H]1C(=O)N[C@@H](CO)C(N)=O [MNGG^30 PSSGAPPPS (SEQ ID NO: 522)],,,8,Glucagon Receptor Relative Potency (glucagon receptor; Table 11): 30%
"CC[C@H](C)[C@H](NC(=O)[C@H](Cc1ccccc1)NC(=O)[C@H](CCC(=O)O)NC(=O)[C@H](CCCCN)NC(=O)[C@H](C)NC(=O)[C@H](C)NC(=O)[C@H](CCC(N)=O)NC(=O)CNC(=O)[C@H](CCC(=O)O)NC(=O)[C@H](CC(C)C)NC(=O)[C@H](Cc1ccc(O)cc1)NC(=O)[C@H](CO)NC(=O)[C@H](CO)NC(=O)[C@@H](NC(=O)[C@H](CC(=O)O)NC(=O)[C@H](CO)NC(=O)[C@@H](NC(=O)[C@H](Cc1ccccc1)NC(=O)[C@@H](NC(=O)CNC(=O)[C@H](CCC(=O)O)NC(=O)[C@H](C)NC(=O)[C@@H](N)Cc1c[nH]cn1)[C@@H](C)O)[C@@H](C)O)C(C)C)C(=O)N[C@@H](C)C(=O)N[C@@H](Cc1c[nH]c2ccccc12)C(=O)N[C@@H](CC(C)C)C(=O)N[C@H](C(=O)N[C@@H](CCCCN)C(=O)NCC(=O)NCC(N)=O)C(C)C [GLP-1-VKGG^30 (SEQ ID NO: 527), HAEGTFTSDVSSYLEGQAAKEFIAW LVKGGa, reference compound]",,,100,
CC(=O)NCC[C@H](NC(=O)[C@H](CO)NC(=O)[C@@H](N)Cc1c[nH]cn1)C(=O)NCC(=O)N[C@H](C(=O)N[C@@H](Cc1ccccc1)C(=O)N[C@H](C(=O)N[C@@H](CO)C(=O)N[C@@H](CC(=O)O)C(=O)N[C@@H](Cc1ccc(O)cc1)C(=O)N[C@@H](CO)C(=O)N[C@@H](CCCCN)C(=O)N[C@@H](Cc1ccc(O)cc1)C(=O)N[C@@H](CC(C)C)C(=O)N[C@@H](CC(=O)O)C(=O)NC(C)(C)C(=O)N[C@@H](CCCNC(=N)N)C(=O)N[C@@H](CCCNC(=N)N)C(=O)N[C@@H](C)C(=O)N[C@H](C(=O)N[C@@H](CC(=O)O)C(=O)N[C@@H](Cc1ccccc1)C(=O)N[C@H](C(=O)N[C@H](C(=O)N[C@@H](Cc1c[nH]c2ccccc12)C(=O)N[C@@H](CC(C)C)C(=O)N[C@@H](CC(C)C)C(=O)N[C@@H](CC(=O)O)C(=O)N[C@@H](CCC(=O)O)C(=O)O)[C@@H](C)O)C(C)C)[C@@H](C)O)[C@@H](C)O)[C@@H](C)O (H-HS[Dab](Ac)GTFTSDYSKYLD[Aib]RRATDFVTWLLDE-OH; N-terminus and C-terminus assumed),,,,"% activity (glucagon receptor; Table 27, glucagon receptor): 46%"
